We go through twelve compounds from patent US20240279202A1 (NURIX THERAPEUTICS, INC., priority 2021, published 2024).

The assay has as its target T1, ITK (Homo sapiens, UniProt Q08881).
T1 sequence (Q08881 1-620): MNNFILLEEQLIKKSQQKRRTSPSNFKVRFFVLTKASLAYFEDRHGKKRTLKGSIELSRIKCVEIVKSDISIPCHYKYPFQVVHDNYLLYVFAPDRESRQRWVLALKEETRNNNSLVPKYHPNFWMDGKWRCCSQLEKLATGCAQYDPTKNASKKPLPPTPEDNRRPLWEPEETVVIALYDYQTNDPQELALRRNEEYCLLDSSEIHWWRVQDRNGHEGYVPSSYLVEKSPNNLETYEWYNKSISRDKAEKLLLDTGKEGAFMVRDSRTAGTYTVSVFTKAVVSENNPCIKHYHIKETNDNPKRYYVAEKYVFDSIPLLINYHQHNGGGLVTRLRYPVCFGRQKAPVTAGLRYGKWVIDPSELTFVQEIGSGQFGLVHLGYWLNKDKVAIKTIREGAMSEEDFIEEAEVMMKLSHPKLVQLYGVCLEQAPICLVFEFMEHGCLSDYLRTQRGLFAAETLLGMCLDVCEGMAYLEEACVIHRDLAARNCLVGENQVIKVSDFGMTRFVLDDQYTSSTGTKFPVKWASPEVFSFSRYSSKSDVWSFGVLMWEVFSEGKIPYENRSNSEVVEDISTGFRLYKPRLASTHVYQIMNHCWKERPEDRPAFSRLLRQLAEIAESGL
Kind of assay: ITK degradation HiBiT assay. The assay is classed as cell-based. Also noted: expressed in transfected cells; host or cells: Molt4 (ATCC CRL-1552), monoclonal clone 1C10, engineered to carry the HiBiT tag. The settings on record: 4 hrs; for DC50: C-terminal HiBiT-tagged Molt4 cells; for Dmax: MOLT-4, C-terminal HiBiT-tagged Molt4 cells. On the procedure:
Itk Degradation Hibit Assay
Compounds provided herein were assayed in vitro with ITK HiBit cell lines. Compound dilution series (11-point, 5 fold dilutions in DMSO, columns 2-12 with replicate in rows A/B, C/D, E/F, G,H at 2000× the final required concentrations were prepared in 96 well plates (Falcon, cat. no. 353077). Column 1, rows A-H were control DMSO. The 2000× solutions ranged from 2 mM to 1.024 nM (final assay concentration range 1 μM to […]). The 2000× solutions were added to cells in […], for a final DMSO concentration of 0.5% and final assay compound concentration of 1×. For the cells, C-terminal HiBiT-tagged Molt4 cells (ATCC CRL-1552, monoclonal cell line clone 1C10) were plated at 1×10^6 cells/mL, 100 μL/well ([…]) in complete RPMI (10% FBS, 1% L-glutamine). The cells were incubated with compound 10 and compound 17 for 4 hrs at […]/6% CO2.
Following incubation, 100 μL of complete Nano-Glo HiBiT Lytic Detection Reagent (Nano-Glo HiBiT Lytic Buffer with 1:50 Nano-Glo HiBiT Lytic Substrate and 1:100 LgBiT Protein; Promega cat. no. N3040) was added. Cells were further incubated for 10 min at room temperature (RT). Luminescence units (LU) were read on an EnVision plate reader (Perkin Elmer, 0.1 sec per well). Percent ITK remaining per sample was calculated as follows: […]
Using Graphpad Prism, % ITK remaining values were plotted as a function of compound concentration. To determine DC50 and Dmax values, resulting curves were fit to the Prism curve-fitting equation “log(inhibitor) vs response—Variable slope (four parameters)” (reported best fit value IC50 used as DC50). ITK was measured with antibody-based MSD (Meso-Scale Discovery) assays shown below.

By DC50 is commonly meant the midpoint of the concentration-degradation curve. A higher DC50 goes with degradation only at high concentration. Usually Dmax stands for the largest share of the target that was removed. Read a high Dmax as deep degradation. As for `C[C@@]12Cc3[nH]nc(C(=O)Nc4cnn(C5CCN(CC6CCN(c7ccc(C8CCC(=O)NC8=O)cc7F)CC6)CC5)c4)c3C[C@@H]1C2(F)F` (mixture of isomers) [Compound 112, (4aS,5aR)-N-(1-{1-[(1-{4-[(3RS)-2,6-dioxopiperidin-3-yl]-2-fluorophenyl}piperidin-4-yl)methyl]piperidin-4-yl}-1H-pyrazol-4-yl)-5,5-difluoro-5a-methyl-1H,4H,4aH,5H,5aH,6H-cyclopropa[f]indazole-3-carboxamide], the 50% degradation concentration (DC50) stood at 0.14 nM and the greatest degradation seen (Dmax) was 87%.
In the same order, the values of `C[C@@]12Cc3[nH]nc(C(=O)Nc4cnn(C5CCN(CC6CCN(c7ccc(C8CCC(=O)NC8=O)cn7)CC6)CC5)c4)c3C[C@@H]1C2(F)F` (mixture of isomers) [Compound 114, (4aS,5aR)-N-(1-{1-[(1-{5-[(3RS)-2,6-dioxopiperidin-3-yl]pyridin-2-yl}piperidin-4-yl)methyl]piperidin-4-yl}-1H-pyrazol-4-yl)-5,5-difluoro-5a-methyl-1H,4H,4aH,5H,5aH,6H-cyclopropa[f]indazole-3-carboxamide] are 0.002 nM and 87%.
The compound `C[C@@]12Cc3[nH]nc(C(=O)Nc4cnn(C5CCN(CC6CCN(c7ncc(C8CCC(=O)NC8=O)cn7)CC6)CC5)c4)c3C[C@@H]1C2(F)F` (mixture of isomers) [Compound 115, (4aS,5aR)-N-(1-{1-[(1-{5-[(3RS)-2,6-dioxopiperidin-3-yl]pyrimidin-2-yl}piperidin-4-yl)methyl]piperidin-4-yl}-1H-pyrazol-4-yl)-5,5-difluoro-5a-methyl-1H,4H,4aH,5H,5aH,6H-cyclopropa[f]indazole-3-carboxamide] registered a DC50 of 0.391 nM and a Dmax of 84%.
Compound `C[C@@]12Cc3[nH]nc(C(=O)Nc4cnn(CC5CCN(CC6CCN(c7ccc(C8CCC(=O)NC8=O)cc7)CC6)CC5)c4)c3C[C@@H]1C2(F)F` (mixture of isomers) [Compound 119, (4aS,5aR)-N-[1-({1-[(1-{4-[(3RS)-2,6-dioxopiperidin-3-yl]phenyl}piperidin-4-yl)methyl]piperidin-4-yl}methyl)-1H-pyrazol-4-yl]-5,5-difluoro-5a-methyl-1H,4H,4aH,5H,5aH,6H-cyclopropa[f]indazole-3-carboxamide] yielded a 50% degradation concentration (DC50) of 0.041 nM and a Dmax of 85%.
In turn, `C[C@@]12Cc3[nH]nc(C(=O)Nc4cnn(CC5CCN(CC6CCN(c7ccc(C8CCC(=O)NC8=O)cn7)CC6)CC5)c4)c3C[C@@H]1C2(F)F` (mixture of isomers) [Compound 120, (4aS,5aR)-N-[1-({1-[(1-{5-[(3RS)-2,6-dioxopiperidin-3-yl]pyridin-2-yl}piperidin-4-yl)methyl]piperidin-4-yl}methyl)-1H-pyrazol-4-yl]-5,5-difluoro-5a-methyl-1H,4H,4aH,5H,5aH,6H-cyclopropa[f]indazole-3-carboxamide] showed a half-maximal degradation concentration (DC50) of 0.049 nM and a maximal degradation (Dmax) of 84%.
Consider `COC[C@@]1(C)CCc2c(-c3cc4ccc(C(=O)N5CCN(CC6CCN(c7ccc(C8CCC(=O)NC8=O)cc7)CC6)CC5)cc4[nH]3)n[nH]c2C1` (mixture of isomers) [Compound 224, (3RS)-3-(4-{4-[(4-{2-[(6S)-6-(methoxymethyl)-6-methyl-1,4,5,7-tetrahydroindazol-3-yl]-1H-indole-6-carbonyl}piperazin-1-yl)methyl]piperidin-1-yl}phenyl)piperidine-2,6-dione], for which it took 8.5 nM to reach half-maximal degradation (DC50) and the greatest degradation seen (Dmax) was 84%.
In the case of `C[C@@]12Cc3[nH]nc(-c4cc5ccc(C(=O)N6CCN(CC7CCN(c8ccc(C9CCC(=O)NC9=O)cc8)CC7)CC6)cc5[nH]4)c3C[C@@H]1C2` (mixture of isomers) [Compound 225, (3RS)-3-(4-{4-[(4-{2-[(4aS,5aR)-5a-Methyl-1H,4H,4aH,5H,6H-cyclopropa[f]indazol-3-yl]-1H-indole-6-carbonyl}piperazin-1-yl)methyl]piperidin-1-yl}phenyl)piperidine-2,6-dione], the half-maximal degradation concentration (DC50) is 8.5 nM and the maximal degradation (Dmax) is 84%.
In the same order, the values of `C[C@@]12Cc3[nH]nc(-c4nc5ccc(C(=O)N6CCN(CC7CCN(c8ccc(C9CCC(=O)NC9=O)cc8)CC7)CC6)cc5[nH]4)c3C[C@@H]1C2(F)F` (mixture of isomers) [Compound 227, (3RS)-3-(4-{4-[(4-{2-[(4aS,5aR)-5,5-difluoro-5a-methyl-1H,4H,4aH,6H-cyclopropa [f]indazol-3-yl]-3H-1,3-benzodiazole-5-carbonyl}piperazin-1-yl)methyl]piperidin-1-yl}phenyl)piperidine-2,6-dione] are 0.6 nM and 87%.
With `CN(c1ccc2cc(-c3n[nH]c4c3C[C@@H]3C(F)(F)[C@]3(C)C4)[nH]c2c1)C(=O)[C@H]1C[C@@]2(CCN(c3ccc4c(c3)C(=O)N([C@H]3CCC(=O)NC3=O)C4=O)C2)C1` (racemic) [Compound 71a, (2r,4r)-N-[2-[(4aS,5aR)-5,5-difluoro-5a-methyl-1H,4H,4aH,6H-cyclopropa[f]indazol-3-yl]-1H-indol-6-yl]-6-[2-[(3RS)-2,6-dioxopiperidin-3-yl]-1,3-dioxoisoindol-5-yl]-N-methyl-6-azaspiro[3.4]octane-2-carboxamide], the Dmax amounted to 53%.
The compound `C[C@@]12Cc3[nH]nc(C(=O)Nc4cnn(C5CCC(CN6CCc7cc(C8CCC(=O)NC8=O)ccc7C6)CC5)c4)c3C[C@@H]1C2(F)F` (mixture of isomers) [Compound 123, (4aS,5aR)-5,5-difluoro-5a-methyl-N-{1-[(lsr,4sr)-4-({6-[(3RS)-2,6-dioxopiperidin-3-yl]-1,2,3,4-tetrahydroisoquinolin-2-yl}methyl)cyclohexyl]-1H-pyrazol-4-yl}-1H,4H,4aH,5H,5aH,6H-cyclopropa[f]indazole-3-carboxamide] returned a DC50 of 63.1 nM and a Dmax of 63%.
Regarding `C[C@@]12Cc3[nH]nc(C(=O)Nc4cnn(C5CCC(CN6CCN(c7ccc(C8CCC(=O)NC8=O)cn7)CC6)CC5)c4)c3C[C@@H]1C2(F)F` (mixture of isomers) [Compound 125, (4aS,5aR)-5,5-difluoro-5a-methyl-N-{1-[(1rs,4rs)-4-[(4-{5-[(3RS)-2,6-dioxopiperidin-3-yl]pyridin-2-yl}piperazin-1-yl)methyl]cyclohexyl]-1H-pyrazol-4-yl}-1H,4H,4aH,5H,5aH,6H-cyclopropa[f]indazole-3-carboxamide], the DC50 came to 3.3 nM and the greatest degradation seen (Dmax) stood at 88%.
As for `C[C@@]12Cc3[nH]nc(C(=O)Nc4cnn(C5CCC(CN6CCN(c7ccc(C8CCC(=O)NC8=O)cc7)CC6)CC5)c4)c3C[C@@H]1C2(F)F` (mixture of isomers) [Compound 126, (4aS,5aR)-5,5-difluoro-5a-methyl-N-{1-[(1rs,4rs)-4-[(4-{4-[(3RS)-2,6-dioxopiperidin-3-yl]phenyl}piperazin-1-yl)methyl]cyclohexyl]-1H-pyrazol-4-yl}-1H,4H,4aH,5H,5aH,6H-cyclopropa[f]indazole-3-carboxamide], the half-maximal degradation concentration (DC50) turned out to be 1.4 nM and the Dmax is 91%.
